Read-outs that look alike come from different tables or passages of the source.
How the values were obtained:
Assay type in all cases: biochemical
[1] = molecular target: butyrylcholinesterase (BChE) (Homo sapiens, UniProt P06276); assay: biochemical
BACE-1 = molecular target: T1, BACE-1 (Homo sapiens, UniProt P56817); assay: In vitro BACE-1 inhibitory FRET assay; conditions: 60 min at 25 °C, pH 4.5
T1 construct: purchased Pan Vera; host or cells: baculovirus-expressed

[2] = molecular target: acetylcholinesterase (AChE) (Homo sapiens, UniProt P22303); assay: biochemical
BChE = BChE (Homo sapiens, UniProt P06276); assay: Kinetic study against BChE (Lineweaver-Burk and Dixon plots); conditions: for Ki: Dixon plot, substrate butyrylthiocholine iodide; for mode of inhibition of BChE: kinetic analysis
Method: (§1) The experiment was performed using different inhibitor (2h, 3b or 3p) concentrations (0, 2.5, 3.5 and 5 µM) and substrate (acetylthiocholine iodide (ACh) or butyrylthiocholine iodide (BCh) concentrations (0.1, 0.5, 2.5 and 5 µM). The reaction was carried out in triplicate and the absorbences were measured at 412 nm after every 1 s. A linear graph of the absorbences against time were plotted to obtain the velocity. Finally, the lineweaver burk plot (reciprocal of the velocity versus reciprocal of the subtrate concentrations) was plotted. as well as the Dixon plot (reciprocal of the velocity versus inhibitor concentration). The inhibition constant Ki, was determined by calculating the straight line equations and identifying the point at which the lines would intersect.

AChE = AChE (Homo sapiens, UniProt P22303); assay: Kinetic study against AChE (Lineweaver-Burk and Dixon plots)
Method: as §1

[3] = mean ± SD, three independent experiments

T1 sequence (P56817 46-501): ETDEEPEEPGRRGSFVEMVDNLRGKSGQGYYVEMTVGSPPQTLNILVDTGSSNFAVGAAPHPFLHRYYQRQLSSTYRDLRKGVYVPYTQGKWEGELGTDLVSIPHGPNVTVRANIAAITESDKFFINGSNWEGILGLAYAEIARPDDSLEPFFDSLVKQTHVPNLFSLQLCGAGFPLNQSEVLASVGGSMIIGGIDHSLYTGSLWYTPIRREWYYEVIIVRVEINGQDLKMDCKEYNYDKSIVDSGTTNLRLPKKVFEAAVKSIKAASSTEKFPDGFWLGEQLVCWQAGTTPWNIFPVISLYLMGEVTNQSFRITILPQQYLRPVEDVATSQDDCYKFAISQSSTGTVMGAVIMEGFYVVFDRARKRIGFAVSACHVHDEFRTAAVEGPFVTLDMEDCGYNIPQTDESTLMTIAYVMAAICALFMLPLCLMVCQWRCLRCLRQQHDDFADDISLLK
BChE, sequence (P06276 29-602): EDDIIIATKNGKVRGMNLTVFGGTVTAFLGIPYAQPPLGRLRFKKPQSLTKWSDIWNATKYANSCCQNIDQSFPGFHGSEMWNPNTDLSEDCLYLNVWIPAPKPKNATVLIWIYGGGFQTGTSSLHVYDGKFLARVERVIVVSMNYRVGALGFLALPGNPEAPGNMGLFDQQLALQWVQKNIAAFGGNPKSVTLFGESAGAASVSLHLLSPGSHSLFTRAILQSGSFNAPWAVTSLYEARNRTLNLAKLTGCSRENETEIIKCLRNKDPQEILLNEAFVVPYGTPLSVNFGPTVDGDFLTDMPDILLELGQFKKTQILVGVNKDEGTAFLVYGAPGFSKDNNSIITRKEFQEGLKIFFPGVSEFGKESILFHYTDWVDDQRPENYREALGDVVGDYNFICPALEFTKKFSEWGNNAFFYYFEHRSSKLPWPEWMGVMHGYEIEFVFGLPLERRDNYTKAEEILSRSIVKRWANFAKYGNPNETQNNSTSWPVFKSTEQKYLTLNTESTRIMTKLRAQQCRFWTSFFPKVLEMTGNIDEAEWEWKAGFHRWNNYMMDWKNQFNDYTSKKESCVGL
butyrylcholinesterase (BChE), sequence (P06276 29-602): as above
acetylcholinesterase (AChE), sequence (P22303 32-614): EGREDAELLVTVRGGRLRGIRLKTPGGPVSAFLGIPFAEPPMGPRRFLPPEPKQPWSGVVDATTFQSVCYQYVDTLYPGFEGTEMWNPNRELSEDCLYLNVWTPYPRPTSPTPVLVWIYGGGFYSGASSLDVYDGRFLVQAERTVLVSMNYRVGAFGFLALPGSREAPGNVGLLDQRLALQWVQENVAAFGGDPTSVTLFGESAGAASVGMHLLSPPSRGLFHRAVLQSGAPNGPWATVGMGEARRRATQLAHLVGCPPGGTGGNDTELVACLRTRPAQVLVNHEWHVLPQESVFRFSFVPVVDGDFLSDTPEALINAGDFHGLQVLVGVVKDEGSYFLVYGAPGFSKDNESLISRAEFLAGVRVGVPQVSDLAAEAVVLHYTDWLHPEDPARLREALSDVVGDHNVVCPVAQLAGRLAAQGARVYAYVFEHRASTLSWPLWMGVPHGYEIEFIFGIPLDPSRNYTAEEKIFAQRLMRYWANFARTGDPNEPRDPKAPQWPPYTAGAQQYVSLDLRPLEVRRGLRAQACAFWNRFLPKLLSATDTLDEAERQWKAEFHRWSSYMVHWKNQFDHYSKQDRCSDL
AChE, sequence (P22303 32-614): as above

Row | Structure (SMILES) | SI AChE/BChE [1] | IC50 [1, 3] [µM] | IC50 (BACE-1) [µM] | SI BChE/AChE [2] | IC50 [2, 3] [µM] | IC50 [1] [µM] | IC50 [2] [µM] | Ki (BChE) [µM] | mode of inhibition of BChE (BChE) | Ki (AChE; Dixon plot, substrate acetylthiocholine iodide) [µM] | mode of inhibition of AChE (AChE; kinetic analysis)
1 | O=c1c(O)c(-c2ccc(Cl)cc2)oc2cc(F)c(I)cc12 [Compound 3c, 2-(4-C.hlorophenyl)-7-fluoro-3-hydroxy-6-iodo-4H-chromen-4-one] | 0.09 | 37.51 ± 0.08 | 19.69 ± 0.05 | 10.8 | 3.45 ± 0.07 | – | – | – | – | – | –
2 | O=C(/C=C/c1ccccc1)c1cc(I)c(Cl)cc1O [Compound 2e, (E)-1-(4-Chloro-2-hydroxy-5-iodophenyl)-3-phenylpropenone] | – | – | – | 2.37 | – | 25.2 ± 0.3 | 10.64 ± 0.07 | – | – | – | –
3 | O=C(/C=C/c1ccc(F)cc1)c1cc(I)c(Cl)cc1O [Compound 2f, (E)-1-(4-Chloro-2-hydroxy-5-iodophenyl)-3-(4-fluorophenyl)propenone] | 0.54 | 17.86 ± 0.08 | – | 1.87 | 9.57 ± 0.2 | – | – | – | – | – | –
4 | O=C(/C=C/c1ccccc1)c1cc(I)c(Br)cc1O [Compound 2i, (E)-1-(4-Bromo-2-hydroxy-5-iodophenyl)-3-phenylpropenone] | 4.12 | – | – | 0.24 | – | 14.11 ± 0.11 | 58.14 ± 0.21 | – | – | – | –
5 | O=c1c(O)c(-c2ccc(Cl)cc2)oc2cc(Cl)c(I)cc12 [Compound 3g, 7-Chl.oro-2-(4-chlorophenyl)-3-hydroxy-6-iodo-4H-chromen-4-one] | 7.69 | – | – | 0.13 | – | 7.69 ± 0.01 | 59.1 ± 0.05 | – | – | – | –
6 | COc1cc(O)c(C(=O)/C=C/c2ccc(F)cc2)cc1I [Compound 2n, (E)-3-(4-Fluorophenyl)-1-(2-hydroxy-5-iodo-4-methoxyphenyl)prop-2-en-1-one] | 1.59 | 5.91 ± 0.05 | 25.07 ± 0.1 | 0.63 | 9.38 ± 0.07 | – | – | – | – | – | –
7 | COc1cc2oc(-c3ccc(F)cc3)c(O)c(=O)c2cc1I [Compound 3n, 2-(4-F.luorophenyl)-3-hydroxy-6-iodo-7-methoxy-4H-chromen-4-one] | 0.76 | – | – | 1.29 | – | 7.93 ± 0.06 | 6.15 ± 0.01 | – | – | – | –
8 | COc1ccc(-c2oc3cc(F)c(I)cc3c(=O)c2O)cc1 [Compound 3d, 7-Flu.oro-3-hydroxy-6-iodo-2-(4-methoxyphenyl)-4H-chromen-4-one] | 1.98 | – | – | 0.50 | – | 29.41 ± 0.04 | 58.18 ± 0.03 | – | – | – | –
9 | O=C(/C=C/c1ccccc1)c1cc(I)c(F)cc1O [Compound 2a, (E)-1-(4-Fluoro-2-hydroxy-5-iodophenyl)-3-phenylpropenone] | 1.38 | 28.06 ± 0.1 | – | 0.72 | 38.78 ± 0.01 | – | – | – | – | – | –
10 | COc1ccc(-c2oc3cc(OC)c(I)cc3c(=O)c2O)cc1 [Compound 3p, 3-Hyd.roxy-6-iodo-7-methoxy-2-(4-methoxyphenyl)-4H-chromen-4-one] | 2.18 | 3.29 ± 0.03 | 22.44 ± 0.07 | 0.45 | 7.19 ± 0.02 | – | – | 0.46 ± 0.16 | mixed kinetic type of inhibition | – | –
11 | COc1cc(O)c(C(=O)/C=C/c2ccc(Cl)cc2)cc1I [Compound 2o, (E)-3-(4-Chlorophenyl)-1-(2-hydroxy-5-iodo-4-methoxyphenyl)prop-2-en-1-one] | 0.95 | 11.6 ± 0.17 | – | 1.05 | 11.1 ± 0.12 | – | – | – | – | – | –
12 | COc1ccc(/C=C/C(=O)c2cc(I)c(F)cc2O)cc1 [Compound 2d, (E)-1-(4-Fluoro-2-hydroxy-5-iodophenyl)-3-(4-methoxyphenyl)propenone] | 1.29 | – | – | 0.78 | – | 8.49 ± 0.05 | 11 ± 0.3 | – | – | – | –
13 | O=c1c(O)c(-c2ccc(F)cc2)oc2cc(Br)c(I)cc12 [Compound 3j, 7-Bro.mo-2-(4-fluorophenyl)-3-hydroxy-6-iodo-4H-chromen-4-one] | 0.41 | – | – | 2.42 | – | 27.01 ± 0.07 | 11.16 ± 0.01 | – | – | – | –
14 | O=c1c(O)c(-c2ccccc2)oc2cc(Br)c(I)cc12 [Compound 3i, 7-Bro.mo-3-hydroxy-6-iodo-2-phenyl-4H-chromen-4-one] | 1.73 | – | – | 0.57 | – | 5.76 ± 0.04 | 9.96 ± 0.01 | – | – | – | –
15 | COc1ccc(/C=C/C(=O)c2cc(I)c(Br)cc2O)cc1 [Compound 2l, (E)-1-(4-Bromo-2-hydroxy-5-iodophenyl)-3-(4-methoxyphenyl)propenone] | 0.69 | – | – | 1.45 | – | 15.25 ± 0.01 | 10.51 ± 0.03 | – | – | – | –
16 | COc1ccc(/C=C/C(=O)c2cc(I)c(Cl)cc2O)cc1 [Compound 2h, (E)-1-(4-Chloro-2-hydroxy-5-iodophenyl)-3-(4-methoxyphenyl)propenone] | 2.81 | 4.17 ± 0.15 | 13.82 ± 0.03 | 0.36 | 11.72 ± 0.07 | – | – | 1.36 ± 0.17 | non-competitive inhibitor | – | –
17 | O=c1c(O)c(-c2ccc(F)cc2)oc2cc(Cl)c(I)cc12 [Compound 3f, 7-Chl.oro-2-(4-fluorophenyl)-3-hydroxy-6-iodo-4H-chromen-4-one] | 2.11 | – | – | 0.47 | – | 18.17 ± 0.1 | 38.39 ± 0.02 | – | – | – | –
18 | O=C(/C=C/c1ccc(Cl)cc1)c1cc(I)c(F)cc1O [Compound 2c, (E)-3-(4-chlorophenyl)-1-(4-fluoro-2-hydroxy-5-iodophenyl)prop-2-en-1-one] | 0.72 | 14.58 ± 0.14 | – | 1.39 | 10.5 ± 0.08 | – | – | – | – | – | –
19 | COc1ccc(/C=C/C(=O)c2cc(I)c(OC)cc2O)cc1 [Compound 2p, (E)-1-(2-Hydroxy-5-iodo-4-methoxyphenyl)-3-(4-methoxyphenyl)prop-2-en-1-one] | 2.24 | 4.89 ± 0.02 | 70.79 ± 0.2 | 0.45 | 10.96 ± 0.03 | – | – | – | – | – | –
20 | COc1ccc(-c2oc3cc(Cl)c(I)cc3c(=O)c2O)cc1 [Compound 3h, 7-Chl.oro-3-hydroxy-6-iodo-2-(4-methoxyphenyl)-4H-chromen-4-one] | 2.51 | 5.72 ± 0.01 | – | 0.40 | 14.33 ± 0.03 | – | – | – | – | – | –
21 | COc1cc2oc(-c3ccccc3)c(O)c(=O)c2cc1I [Compound 3m, 3-Hyd.roxy-6-iodo-7-methoxy-2-phenyl-4H-chromen-4-one] | 0.88 | – | – | 1.14 | – | 10.5 ± 0.02 | 9.25 ± 0.09 | – | – | – | –
22 | COc1cc(O)c(C(=O)/C=C/c2ccccc2)cc1I [Compound 2m, (E)-1-(2-Hydroxy-5-iodo-4-methoxyphenyl)-3-phenylprop-2-en-1-one] | 1.05 | 9.52 ± 0.03 | – | 0.95 | 10.01 ± 0.09 | – | – | – | – | – | –
23 | O=c1c(O)c(-c2ccccc2)oc2cc(Cl)c(I)cc12 [Compound 3e, 7-Chl.oro-3-hydroxy-6-iodo-2-phenyl-4H-chromen-4-one] | 7.21 | – | – | 0.14 | – | 6.64 ± 0.03 | 47.85 ± 0.04 | – | – | – | –
24 | O=c1c(O)c(-c2ccc(Cl)cc2)oc2cc(Br)c(I)cc12 [Compound 3k, 7-Bro.mo-2-(4-chlorophenyl)-3-hydroxy-6-iodo-4H-chromen-4-one] | 5.57 | – | – | 0.18 | – | 5.25 ± 0.01 | 29.24 ± 0.03 | – | – | – | –
25 | O=C(/C=C/c1ccc(Cl)cc1)c1cc(I)c(Cl)cc1O [Compound 2g, (E)-1-(4-Chloro-2-hydroxy-5-iodophenyl)-3-(4-chlorophenyl)propenone] | – | – | – | – | – | > 100 | 11 ± 0.06 | – | – | – | –
26 | O=C(/C=C/c1ccc(F)cc1)c1cc(I)c(F)cc1O [Compound 2b, (E)-1-(4-Fluoro-2-hydroxy-5-iodophenyl)-3-(4-fluorophenyl)propenone] | 0.84 | – | – | 1.19 | – | 19.73 ± 0.05 | 16.6 ± 0.03 | – | – | – | –
27 | O=c1c(O)c(-c2ccccc2)oc2cc(F)c(I)cc12 [Compound 3a, 7-Flu.oro-3-hydroxy-6-iodo-2-phenyl-4H-chromen-4-one] | 1.10 | – | – | 0.91 | – | 27.01 ± 0.06 | 29.71 ± 0.01 | – | – | – | –
28 | O=C(/C=C/c1ccc(Cl)cc1)c1cc(I)c(Br)cc1O [Compound 2k, (E)-1-(4-Bromo-2-hydroxy-5-iodophenyl)-3-(4-chlorophenyl)propenone] | 1.11 | – | – | 0.90 | – | 10.44 ± 0.09 | 11.56 ± 0.05 | – | – | – | –
29 | COc1cc2oc(-c3ccc(Cl)cc3)c(O)c(=O)c2cc1I [Compound 3o, 2-(4-C.hlorophenyl)-3-hydroxy-6-iodo-7-methoxy-4H-chromen-4-one] | 4.03 | – | – | 0.24 | – | 13.7 ± 0.14 | 55.27 ± 0.04 | – | – | – | –
30 | O=c1c(O)c(-c2ccc(F)cc2)oc2cc(F)c(I)cc12 [Compound 3b, 7-Flu.oro-2-(4-fluorophenyl)-3-hydroxy-6-iodo-4H-chromen-4-one] | 0.11 | 29.78 ± 0.04 | 32.18 ± 0.15 | 9.22 | 3.23 ± 0.02 | – | – | – | – | 4.34 ± 1.1 | mixed type of inhibition

From paper PMC6321475, “Synthesis and Evaluation of the 4-Substituted 2-Hydroxy-5-Iodochalcones and Their 7-Substituted 6-Iodoflavonol Derivatives for Inhibitory Effect on Cholinesterases and β-Secretase” (International Journal of Molecular Sciences, 2018)
